The values below come from publication PMC6325638 (Clinics in liver disease, 2017).

For series [1], the system named is zebrafish larvae.
Series [2] deals with 3D multicellular microphysiological systems (MPS) of the human liver. The conditions noted are these: 3D multicellular microfluidic human liver model; cited from earlier work.
In another series the test system is cultured rat hepatocytes. Description: ROS induction and death in cultured hepatocytes. The series is classed as cell-based. As to conditions: 96-well plates, oxyethidium fluorescence.
The subject of series [3] is zebrafish larvae. As to conditions: in vivo.
Where [4] appears, read: 72 hpf zebrafish larvae, 0.07 μM.
The mark [5] stands for this setting: 72 hpf zebrafish larvae, 0.2 μM.
Where [6] appears, read: 72 hpf zebrafish larvae, 0.66 μM.
Where [7] appears, read: 72 hpf zebrafish larvae, 6.6 μM.
[8] abbreviates: 72 hpf zebrafish larvae, 200 μM.

Where two headings read alike, the source gives them in different places.

In the case of `N#CC(C#N)=NNc1cccc(Cl)c1` [CCCP, Carbonyl cyandide m-chorophenyl hydrazone], the “Live/dead (translucent = live, opaque = dead)” value (shortened to “Live/dead”) with zebrafish larvae [1] (setting [4]) is reported as 4/0; with zebrafish larvae [1] (setting [5]) it was 4/0; with zebrafish larvae [1] (setting [6]), 4/0; with zebrafish larvae [1] (72 hpf zebrafish larvae, 2 μM), 4/0; in the series with zebrafish larvae [1] (setting [7]), 4/0. Moreover, the “Visual toxicity (bent tail, distended peritoneum, edema, pericardial congestion)” value (“Visual toxicity” for short) in the series with zebrafish larvae [1] (setting [4]) was 2/4; with zebrafish larvae [1] (setting [5]), 4/4; in the series with zebrafish larvae [1] (setting [6]) it was 3/4; with zebrafish larvae [1] (72 hpf zebrafish larvae, 2 μM), 3/4; in the series with zebrafish larvae [1] (setting [7]) it was 2/4; in the series on zebrafish larvae [1] (72 hpf zebrafish larvae, 20 μM), 0/1.
`C=C(C)[C@H]1Cc2c(ccc3c2O[C@@H]2COc4cc(OC)c(OC)cc4[C@@H]2C3=O)O1` [Rotenone]: the “Live/dead” value in the series on zebrafish larvae [1] (setting [4]) was 4/0; in the series on zebrafish larvae [1] (setting [5]), 4/0; with zebrafish larvae [1] (setting [6]), 4/0; in the series with zebrafish larvae [1] (72 hpf zebrafish larvae, 2 μM), 4/0; with zebrafish larvae [1] (72 hpf zebrafish larvae, 20 μM), 1/4. Also, the “Visual toxicity” value in the series on zebrafish larvae [1] (setting [4]) is 2/4; in the series with zebrafish larvae [1] (setting [5]), 3/4; in the series on zebrafish larvae [1] (setting [6]), 2/4; in the series on zebrafish larvae [1] (72 hpf zebrafish larvae, 2 μM) it was 1/4; with zebrafish larvae [1] (setting [7]), 0/3; in the series on zebrafish larvae [1] (72 hpf zebrafish larvae, 20 μM), 1/1.
As to `CN(Cc1cnc2nc(N)nc(N)c2n1)c1ccc(C(=O)N[C@@H](CCC(=O)O)C(=O)O)cc1` [methotrexate], the “Chronic drug effect in human liver MPS” value in series [2] is “induction of fibrosis”.
With `CC1=CC(=O)c2ccccc2C1=O` [Menadione], the “Live/dead” value in the series with zebrafish larvae [1] (setting [6]) is 4/0; in the series on zebrafish larvae [1] (72 hpf zebrafish larvae, 2 μM), 4/0; in the series on zebrafish larvae [1] (setting [7]), 4/0; in the series with zebrafish larvae [1] (72 hpf zebrafish larvae, 20 μM), 0/4; in the series with zebrafish larvae [1] (72 hpf zebrafish larvae, 66 μM), 0/4; in the series with zebrafish larvae [1] (setting [8]), 0/4. The “Visual toxicity” value is reported as 0/4 in the series on zebrafish larvae [1] (zebrafish, in vivo, 0.66 μM); 2/4 in the series on zebrafish larvae [1] (zebrafish, in vivo, 2 μM); 1/4 with zebrafish larvae [1] (zebrafish, in vivo, 6.6 μM). For the same compound, the “ROS induction and death in cultured hepatocytes” value with cultured rat hepatocytes was “ROS induction and death in cultured hepatocytes”. Further, the “Generation of ROS in zebrafish” value with zebrafish larvae [3] is “time-dependent and dose-dependent generation of ROS”.
`CCCCc1oc2ccccc2c1C(=O)c1cc(I)c(OCCN(CC)CC)c(I)c1` [Amiodarone]: the “Live/dead” value in the series with zebrafish larvae [1] (setting [6]) is reported as 4/0; in the series on zebrafish larvae [1] (72 hpf zebrafish larvae, 2 μM) it was 4/0; in the series with zebrafish larvae [1] (setting [7]), 4/0; in the series on zebrafish larvae [1] (72 hpf zebrafish larvae, 20 μM) it was 4/0; with zebrafish larvae [1] (72 hpf zebrafish larvae, 66 μM), 0/4; in the series with zebrafish larvae [1] (setting [8]) it was 0/4.
For the compound `Cn1c(=O)c2c(ncn2C)n(C)c1=O` [Caffeine], the “Live/dead” value is 4/0 with zebrafish larvae [1] (72 hpf zebrafish larvae, 3 μM); 4/0 in the series on zebrafish larvae [1] (72 hpf zebrafish larvae, 10 μM); 4/0 with zebrafish larvae [1] (72 hpf zebrafish larvae, 30 μM); 4/0 in the series on zebrafish larvae [1] (72 hpf zebrafish larvae, 100 μM); 4/0 in the series with zebrafish larvae [1] (72 hpf zebrafish larvae, 300 μM); 4/0 with zebrafish larvae [1] (72 hpf zebrafish larvae, 1000 μM).
